The results in this text go back to patent publication US9394311B2, “Triazolo compounds as PDE10 inhibitors” (Hoffmann-La Roche Inc., priority 2012, dated 2016).

human PDE10A, sequence (Q9Y233 other isoform, or with tags, fused parts or gaps): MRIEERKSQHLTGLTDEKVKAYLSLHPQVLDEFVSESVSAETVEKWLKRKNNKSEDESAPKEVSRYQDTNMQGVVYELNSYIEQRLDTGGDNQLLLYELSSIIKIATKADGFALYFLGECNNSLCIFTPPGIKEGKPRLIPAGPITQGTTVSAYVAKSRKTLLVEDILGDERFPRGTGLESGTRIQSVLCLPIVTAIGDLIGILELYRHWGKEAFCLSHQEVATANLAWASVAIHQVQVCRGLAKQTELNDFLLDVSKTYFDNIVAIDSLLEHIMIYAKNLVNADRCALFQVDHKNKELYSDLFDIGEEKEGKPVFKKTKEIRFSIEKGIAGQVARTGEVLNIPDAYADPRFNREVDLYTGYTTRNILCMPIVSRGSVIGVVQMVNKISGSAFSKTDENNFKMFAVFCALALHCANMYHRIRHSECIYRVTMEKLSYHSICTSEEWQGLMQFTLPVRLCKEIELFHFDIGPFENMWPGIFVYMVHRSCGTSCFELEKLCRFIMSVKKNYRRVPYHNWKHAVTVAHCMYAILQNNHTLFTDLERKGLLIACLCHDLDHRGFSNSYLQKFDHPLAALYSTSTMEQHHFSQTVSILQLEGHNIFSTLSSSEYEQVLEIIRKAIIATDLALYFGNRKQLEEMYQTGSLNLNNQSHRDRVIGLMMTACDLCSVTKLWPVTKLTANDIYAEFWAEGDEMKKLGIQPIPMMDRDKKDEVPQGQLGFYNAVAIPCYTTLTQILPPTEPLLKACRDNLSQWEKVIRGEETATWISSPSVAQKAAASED

The assay addresses human PDE10A (Homo sapiens (Human), UniProt Q9Y233). Nature of the assay: human PDE10A full length Scintillation Proximity Assay (SPA). The assay is classed as biochemical. Particulars: PDE10A full length enzyme, 50 nM cGMP / [3H]-cGMP substrate, 20 minutes at room temperature. Put shortly: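 Full-length human PDE10A with 50 nM cGMP plus 50 nM [3H]-cGMP in 20 mM HEPES pH 7.5, 10 mM MgCl2, 0.05 mg/ml BSA; 20 min at room temperature. Stopped with yttrium silicate SPA beads in zinc sulphate, scintillation counted; IC50 from concentration range.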
In the case of `Cc1nc2ccc(Cl)cc2nc1C#Cc1nc(N2CCCC2)nn1C` [Example 136, 6-Chloro-2-methyl-3-(2-methyl-5-pyrrolidin-1-yl-2H-[1,2,4]triazol-3-ylethynyl)-quinoxaline], the IC50 was 5.17 nM.
As to `Cn1nc(N2CCCC2)nc1CCc1nc2ccc3ccccc3n2n1` [Example 56, 2-(2-(1-Methyl-3-(pyrrolidin-1-yl)-1H-1,2,4-triazol-5-yl)ethyl)-[1,2,4]triazolo[1,5-a]quinoline], inhibition was half-maximal at 29.2 nM (IC50).
Next, `Cc1ccn2nc(CCc3nc(N4CCCC4)nn3C)nc2c1[N+](=O)[O-]` [Example 55, 7-Methyl-2-(2-(1-methyl-3-(pyrrolidin-1-yl)-1H-1,2,4-triazol-5-yl)ethyl)-8-nitro-[1,2,4]triazolo[1,5-a]pyridine]: 94.7 nM; `Cc1nc(C(F)(F)F)n2nc(CCc3nc(N4CCCC4)nn3C)nc2c1C` [Example 103, 7,8-Dimethyl-2-(2-(1-methyl-3-(pyrrolidin-1-yl)-1H-1,2,4-triazol-5-yl)ethyl)-5-(trifluoromethyl)-[1,2,4]triazolo[1,5-c]pyrimidine]: 10.2 nM.
In turn, `Cc1ncc(C)n2nc(CCc3nc(N4CC5CCC5C4)nn3C)nc12` (stereo not drawn) [Example 99, 2-{2-[5-(3-Aza-bicyclo[3.2.0]hept-3-yl)-2-methyl-2H-[1,2,4]triazol-3-yl]-ethyl}-5,8-dimethyl-[1,2,4]triazolo[1,5-a]pyrazine] showed an IC50 of 273 nM.
As for `CCN(c1nc(CCc2nc3c(C)ncc(C)n3n2)n(C)n1)C1CC1` [Example 60, Cyclopropyl-{5-[2-(5,8-dimethyl-[1,2,4]triazolo[1,5-a]pyrazin-2-yl)-ethyl]-1-methyl-1H-[1,2,4]triazol-3-yl}-ethyl-amine], the figure is 186 nM.
